Active and inactive are the calls of the source. No cut-off for these calls is given here.
Experiments:
CYP1A2 = molecular target: T1, CYP1A2 (Homo sapiens, UniProt P05177); assay: Time dependent inhibition of CYP1A2 in human liver microsomes at 10 uM by LC-MS/MS analysis relative to control; type: ADME, Microsome; settings: read-out: TDI
T1 sequence (P05177 whole entry): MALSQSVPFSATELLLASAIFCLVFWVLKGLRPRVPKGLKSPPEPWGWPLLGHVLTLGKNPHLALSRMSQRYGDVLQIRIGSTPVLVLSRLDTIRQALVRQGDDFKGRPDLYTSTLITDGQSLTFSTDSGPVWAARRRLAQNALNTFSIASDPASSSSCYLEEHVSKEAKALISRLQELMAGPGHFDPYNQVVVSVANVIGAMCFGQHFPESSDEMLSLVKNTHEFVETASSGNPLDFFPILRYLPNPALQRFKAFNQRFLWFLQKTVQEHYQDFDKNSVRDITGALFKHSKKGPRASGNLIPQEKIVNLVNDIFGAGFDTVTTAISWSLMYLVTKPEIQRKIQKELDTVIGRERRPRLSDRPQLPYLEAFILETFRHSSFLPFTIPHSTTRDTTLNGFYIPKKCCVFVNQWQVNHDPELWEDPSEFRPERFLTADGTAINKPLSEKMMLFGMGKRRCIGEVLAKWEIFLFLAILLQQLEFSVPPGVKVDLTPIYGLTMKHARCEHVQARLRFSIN

[1] = Clearance in cynomolgus monkey at 1 mg/kg, iv; type: ADME, organism-based, Macaca fascicularis; settings: in vivo
CYP2C19 = CYP2C19 (Homo sapiens, UniProt P33261); assay: Inhibition of CYP2C19 in human liver microsomes at 10 uM by LC-MS/MS analysis relative to control; type: ADME, Microsome
Chain of CYP2C19 (P33261 whole entry): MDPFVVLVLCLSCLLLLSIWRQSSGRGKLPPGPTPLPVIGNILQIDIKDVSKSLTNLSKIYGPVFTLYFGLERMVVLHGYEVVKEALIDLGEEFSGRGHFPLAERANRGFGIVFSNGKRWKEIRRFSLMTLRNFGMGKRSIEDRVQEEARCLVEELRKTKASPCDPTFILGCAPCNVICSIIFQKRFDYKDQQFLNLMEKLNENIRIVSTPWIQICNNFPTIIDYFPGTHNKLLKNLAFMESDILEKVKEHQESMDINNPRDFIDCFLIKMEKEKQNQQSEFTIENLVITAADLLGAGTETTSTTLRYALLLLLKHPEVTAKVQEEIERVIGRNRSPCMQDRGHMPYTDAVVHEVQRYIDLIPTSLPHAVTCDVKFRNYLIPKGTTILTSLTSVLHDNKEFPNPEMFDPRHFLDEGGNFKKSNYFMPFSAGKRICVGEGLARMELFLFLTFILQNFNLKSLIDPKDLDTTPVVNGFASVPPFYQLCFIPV

[2] = molecular target: Matrix metalloproteinase-14 (Homo sapiens, UniProt P50281); assay: Inhibition of recombinant human MMP14 assessed as enzyme activity by measuring fluorescence using fluorogenic peptide substrate
CYP3A [3] = molecular target: T2, CYP3A (Homo sapiens, UniProt P08684+P20815+P24462+Q9HB55); assay: Time dependent inhibition of CYP3A in human liver microsomes using midazolam as substrate at 10 uM by LC-MS/MS analysis relative to control; type: ADME, Microsome; settings: probe midazolam, read-out: TDI
[4] = molecular target: Macrophage metalloelastase (Homo sapiens, UniProt P39900); assay: Inhibition of recombinant human MMP12 assessed as enzyme activity by measuring fluorescence using fluorogenic peptide substrate
Chain of Macrophage metalloelastase (P39900 whole entry): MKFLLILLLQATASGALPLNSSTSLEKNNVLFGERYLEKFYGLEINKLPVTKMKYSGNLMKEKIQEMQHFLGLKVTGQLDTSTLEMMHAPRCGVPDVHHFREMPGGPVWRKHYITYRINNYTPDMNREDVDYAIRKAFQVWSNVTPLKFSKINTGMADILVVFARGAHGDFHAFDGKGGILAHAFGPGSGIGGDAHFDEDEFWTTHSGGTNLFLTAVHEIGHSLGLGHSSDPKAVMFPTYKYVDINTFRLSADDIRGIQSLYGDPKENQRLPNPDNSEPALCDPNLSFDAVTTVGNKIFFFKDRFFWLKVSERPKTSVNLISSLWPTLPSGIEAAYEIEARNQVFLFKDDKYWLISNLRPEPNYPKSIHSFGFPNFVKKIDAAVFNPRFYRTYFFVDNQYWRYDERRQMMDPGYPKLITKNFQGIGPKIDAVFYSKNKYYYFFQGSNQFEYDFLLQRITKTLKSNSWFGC

[5] = Chemical stability of the compound in pH 4 aqueous solution assessed as degradation by measuring residual rate incubated measured after 2 weeks at 65 degC by HPLC analysis; type: physicochemical; settings: read-out: Stability
CYP3A [6] = molecular target: T2, CYP3A; assay: Inhibition of CYP3A in human liver microsomes using midazolam as substrate at 10 uM by LC-MS/MS analysis relative to control; type: ADME, Microsome; settings: probe midazolam
[7] = Plasma unbound drug concentration at steady state in UUO surgery-induced renal fibrosis C57BL/6J mouse model at 0.3 mg/kg/day, sc administered with mini osmotic pump measured after 3 days; type: ADME, organism-based; settings: in vivo, 72 h, time 3 day
Mus musculus = assay: Antifibrotic effect in UUO surgery-induced renal fibrosis C57BL/6J mouse model assessed as reduction in renal collagen at 0.3 to 3 mg/kg/day, sc administered with mini osmotic pump measured after 7 days; type: functional, organism-based; settings: dose 0.3-3 mg/kg/day, time 7.0 day
HepG2 = assay: Cytotoxicity against human HepG2 cells at 10 uM; type: toxicity, cell-based; settings: hepg2, 10 µM
[8] = molecular target: Matrix metalloproteinase-9 (Homo sapiens, UniProt P14780); assay: Inhibition of recombinant human MMP9 assessed as enzyme activity by measuring fluorescence using fluorogenic peptide substrate
Chain of Matrix metalloproteinase-9 (P14780 whole entry): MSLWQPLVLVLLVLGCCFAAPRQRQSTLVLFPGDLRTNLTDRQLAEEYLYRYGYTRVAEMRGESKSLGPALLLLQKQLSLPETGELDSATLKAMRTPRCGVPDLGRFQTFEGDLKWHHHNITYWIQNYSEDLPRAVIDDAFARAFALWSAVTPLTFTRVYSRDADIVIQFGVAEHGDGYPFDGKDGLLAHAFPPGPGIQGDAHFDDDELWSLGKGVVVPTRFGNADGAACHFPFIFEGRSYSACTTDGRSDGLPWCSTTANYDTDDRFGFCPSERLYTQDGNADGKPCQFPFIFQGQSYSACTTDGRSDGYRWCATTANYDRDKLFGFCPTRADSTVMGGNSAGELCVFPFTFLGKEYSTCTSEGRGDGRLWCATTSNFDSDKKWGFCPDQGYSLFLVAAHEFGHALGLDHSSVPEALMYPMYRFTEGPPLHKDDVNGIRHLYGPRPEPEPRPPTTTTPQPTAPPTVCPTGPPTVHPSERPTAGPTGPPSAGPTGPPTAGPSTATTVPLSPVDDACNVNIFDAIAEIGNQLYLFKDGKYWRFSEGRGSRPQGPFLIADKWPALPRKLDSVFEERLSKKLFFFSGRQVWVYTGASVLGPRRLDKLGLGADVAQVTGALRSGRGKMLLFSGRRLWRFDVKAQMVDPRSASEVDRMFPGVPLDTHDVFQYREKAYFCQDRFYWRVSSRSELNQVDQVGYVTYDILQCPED

[9] = Plasma unbound drug concentration at steady state in UUO surgery-induced renal fibrosis C57BL/6J mouse model at 0.1 mg/kg/day, sc administered with mini osmotic pump measured after 3 days; type: ADME, organism-based; settings: in vivo, 72 h, time 3 day
[10] = Chemical stability of the compound in pH 7.4 aqueous solution assessed as degradation by measuring residual rate incubated for 24 hrs at 65 degC by HPLC analysis; type: physicochemical; settings: read-out: Activity
[11] = Fraction unbound in human; type: ADME
[12] = Fraction unbound in monkey; type: ADME, Macaca mulatta; settings: rhesus monkey
CYP2C8 [13] = molecular target: T3, CYP2C8 (Homo sapiens, UniProt P10632); assay: Time dependent inhibition of CYP2C8 in human liver microsomes at 10 uM by LC-MS/MS analysis relative to control; type: ADME, Microsome; settings: read-out: TDI
T3 sequence (P10632 whole entry): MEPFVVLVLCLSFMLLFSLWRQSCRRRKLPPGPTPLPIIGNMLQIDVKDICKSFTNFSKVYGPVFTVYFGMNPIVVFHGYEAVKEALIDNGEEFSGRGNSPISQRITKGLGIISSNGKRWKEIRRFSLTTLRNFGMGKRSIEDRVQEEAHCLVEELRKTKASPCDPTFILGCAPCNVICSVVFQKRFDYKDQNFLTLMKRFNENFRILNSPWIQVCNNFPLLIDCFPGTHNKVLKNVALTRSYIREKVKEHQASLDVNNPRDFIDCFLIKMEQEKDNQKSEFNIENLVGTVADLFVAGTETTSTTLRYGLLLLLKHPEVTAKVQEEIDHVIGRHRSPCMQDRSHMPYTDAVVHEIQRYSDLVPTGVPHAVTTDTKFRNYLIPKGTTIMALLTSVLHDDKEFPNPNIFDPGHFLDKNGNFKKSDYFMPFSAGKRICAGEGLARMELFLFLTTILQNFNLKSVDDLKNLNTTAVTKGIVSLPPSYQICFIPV

[14] = molecular target: Voltage-gated inwardly rectifying potassium channel KCNH2 (Homo sapiens, UniProt Q12809); assay: Inhibition of hERG at 10 uM; type: toxicity
Chain of Voltage-gated inwardly rectifying potassium channel KCNH2 (Q12809 whole entry): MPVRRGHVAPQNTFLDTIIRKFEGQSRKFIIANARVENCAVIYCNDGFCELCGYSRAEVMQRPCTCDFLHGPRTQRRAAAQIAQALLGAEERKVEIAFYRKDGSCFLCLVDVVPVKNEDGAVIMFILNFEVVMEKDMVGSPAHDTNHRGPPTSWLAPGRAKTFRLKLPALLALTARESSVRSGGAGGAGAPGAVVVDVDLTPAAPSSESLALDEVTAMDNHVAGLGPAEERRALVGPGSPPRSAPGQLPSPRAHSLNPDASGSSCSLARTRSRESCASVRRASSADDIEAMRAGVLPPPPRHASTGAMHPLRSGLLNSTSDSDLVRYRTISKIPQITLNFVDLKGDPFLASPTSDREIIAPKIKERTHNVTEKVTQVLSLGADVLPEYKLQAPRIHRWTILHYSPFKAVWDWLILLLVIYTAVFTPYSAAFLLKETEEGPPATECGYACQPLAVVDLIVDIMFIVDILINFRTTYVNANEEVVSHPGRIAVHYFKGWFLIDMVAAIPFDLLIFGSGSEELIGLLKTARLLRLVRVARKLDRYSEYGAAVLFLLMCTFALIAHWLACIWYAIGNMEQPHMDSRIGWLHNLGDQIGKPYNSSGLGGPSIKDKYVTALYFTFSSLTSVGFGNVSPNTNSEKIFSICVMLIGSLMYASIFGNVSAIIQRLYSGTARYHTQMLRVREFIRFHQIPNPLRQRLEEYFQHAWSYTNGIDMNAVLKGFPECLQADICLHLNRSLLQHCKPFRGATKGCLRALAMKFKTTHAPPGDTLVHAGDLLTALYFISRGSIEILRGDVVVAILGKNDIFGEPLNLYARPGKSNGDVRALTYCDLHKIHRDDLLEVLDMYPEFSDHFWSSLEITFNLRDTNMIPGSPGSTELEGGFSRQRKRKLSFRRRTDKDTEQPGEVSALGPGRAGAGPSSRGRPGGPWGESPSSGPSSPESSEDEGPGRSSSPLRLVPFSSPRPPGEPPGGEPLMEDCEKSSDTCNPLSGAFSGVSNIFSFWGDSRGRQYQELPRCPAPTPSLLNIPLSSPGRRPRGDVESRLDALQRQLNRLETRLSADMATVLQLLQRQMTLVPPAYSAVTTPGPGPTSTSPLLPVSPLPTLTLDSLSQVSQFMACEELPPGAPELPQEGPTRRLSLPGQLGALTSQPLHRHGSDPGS

[15] = Volume of distribution at steady state in Sprague-Dawley rat at 0.5 mg/kg, iv; type: ADME, organism-based; settings: in vivo, read-out: Vdss
Neutrophil collagenase = Neutrophil collagenase (Homo sapiens, UniProt P22894); assay: Inhibition of recombinant human MMP8 assessed as enzyme activity by measuring fluorescence using fluorogenic peptide substrate
Chain of Neutrophil collagenase (P22894 whole entry): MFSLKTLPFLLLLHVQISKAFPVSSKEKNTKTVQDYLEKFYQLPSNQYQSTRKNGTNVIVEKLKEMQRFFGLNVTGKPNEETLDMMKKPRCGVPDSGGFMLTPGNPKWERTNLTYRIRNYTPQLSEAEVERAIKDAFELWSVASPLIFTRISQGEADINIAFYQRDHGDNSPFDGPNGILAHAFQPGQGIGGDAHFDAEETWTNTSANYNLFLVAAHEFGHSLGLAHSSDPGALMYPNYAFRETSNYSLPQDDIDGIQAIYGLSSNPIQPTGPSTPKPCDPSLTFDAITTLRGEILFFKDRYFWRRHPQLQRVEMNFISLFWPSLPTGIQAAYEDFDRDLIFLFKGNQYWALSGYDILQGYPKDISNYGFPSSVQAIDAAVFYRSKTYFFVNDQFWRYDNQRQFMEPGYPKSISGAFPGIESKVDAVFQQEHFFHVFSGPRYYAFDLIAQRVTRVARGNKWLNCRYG

[16] = Chemical stability of the compound in pH 7.4 aqueous solution assessed as degradation by measuring residual rate incubated measured after 2 weeks at 65 degC by HPLC analysis; type: physicochemical; settings: read-out: Stability
[17] = Plasma unbound drug concentration at steady state in UUO surgery-induced renal fibrosis C57BL/6J mouse model at 3 mg/kg/day, sc administered with mini osmotic pump measured after 3 days; type: ADME, organism-based; settings: in vivo, 72 h, time 3 day
CYP2C8 [18] = molecular target: T3, CYP2C8; assay: Inhibition of CYP2C8 in human liver microsomes at 10 uM by LC-MS/MS analysis relative to control; type: ADME, Microsome
CYP3A [19] = molecular target: T2, CYP3A; assay: Time dependent inhibition of CYP3A in human liver microsomes using testosterone as substrate at 10 uM by LC-MS/MS analysis relative to control; type: ADME, Microsome; settings: probe testosterone, read-out: TDI
CYP2C9 = CYP2C9 (Homo sapiens, UniProt P11712); assay: Time dependent inhibition of CYP2C9 in human liver microsomes at 10 uM by LC-MS/MS analysis relative to control; type: ADME, Microsome; settings: read-out: TDI
Chain of CYP2C9 (P11712 whole entry): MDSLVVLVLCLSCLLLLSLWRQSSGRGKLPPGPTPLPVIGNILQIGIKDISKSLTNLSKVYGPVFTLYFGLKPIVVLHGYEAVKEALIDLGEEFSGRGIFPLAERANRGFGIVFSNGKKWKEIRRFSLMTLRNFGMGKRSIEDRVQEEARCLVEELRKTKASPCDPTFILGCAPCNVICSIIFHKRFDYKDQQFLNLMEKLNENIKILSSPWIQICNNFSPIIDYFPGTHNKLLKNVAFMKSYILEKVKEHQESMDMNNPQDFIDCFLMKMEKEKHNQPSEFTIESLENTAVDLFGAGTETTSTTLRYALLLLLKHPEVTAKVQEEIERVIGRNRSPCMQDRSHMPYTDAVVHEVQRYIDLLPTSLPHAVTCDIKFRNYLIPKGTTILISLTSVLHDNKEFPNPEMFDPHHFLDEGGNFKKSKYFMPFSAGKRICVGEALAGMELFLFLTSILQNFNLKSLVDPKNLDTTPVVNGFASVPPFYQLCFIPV

inhibition at 10 µM (CYP1A2): -5%
clearance [1]: 0.918 mL/min/kg
inhibition at 10 µM (CYP2C19): -4.3%
IC50 [2]: 1.7 µM
inhibition at 10 µM (CYP3A [3]): -5.2%
IC50 [4]: 0.73 µM
remaining at 336 h [5]: 98.2%
inhibition at 10 µM (CYP3A [6]): 6%
Cp(f) [7]: 6.56 nM
IC50 [8]: > 10 µM
Cp(f) [9]: 1.32 nM
remaining at 24 h [10]: 97.9%
fraction unbound [11]: 0.135
fraction unbound [12]: 0.2
inhibition at 10 µM (CYP2C8 [13]): 9.1%
Vd [15]: 0.179 L/kg
IC50 (Neutrophil collagenase): > 10 µM
remaining at 336 h [16]: 99.1%
Cp(f) [17]: 31 nM
inhibition at 10 µM (CYP2C8 [18]): 14.4%
inhibition at 10 µM (CYP3A [19]): -13.9%
inhibition at 10 µM (CYP2C9): -11.5%
Compound: CC(C)(C)[C@H](NC(=O)[C@H](Cc1ccncc1)NC(=O)CNC(=O)CC[C@H](NS(=O)(=O)c1ccc(Cl)c(C(F)(F)F)c1)C(=O)O)C(=O)Nc1ccc(C(=O)N2CCC(C(=O)N[C@H](CCCCN)C(=O)N3CC[C@H](N)C3)CC2)cc1
Activity (Mus musculus): Active
Activity (HepG2): Non-Toxic
inhibition (INH) [14]: Not Active

— ChEMBL document CHEMBL5537178, “Discovery of TP0628103: A Highly Potent and Selective MMP-7 Inhibitor with Reduced OATP-Mediated Clearance Designed by Shifting Isoelectric Points” (J Med Chem, 2024)
